Measurements: the NIST ThermoML archive (doi:10.1016/j.jct.2016.03.040)

Assay: mn = molality of the nth substance listed, in mol/kg
Conditions: 100 kPa, Liquid; for speed of sound: Frequency=3 MHz, Sing-around technique in a fixed-path interferometer; for mass density: Vibrating tube method

O=C(N[C@H](CO)[C@H](O)c1ccc([N+](=O)[O-])cc1)C(Cl)Cl + O
Conditions	mass density, 288.15 K [kg/m3]	mass density, 298.15 K [kg/m3]	mass density, 308.15 K [kg/m3]	mass density, 318.15 K [kg/m3]	speed of sound, 288.15 K [m/s]	speed of sound, 298.15 K [m/s]	speed of sound, 308.15 K [m/s]	speed of sound, 318.15 K [m/s]
m1 = 0.0005	999.273	997.209	994.205	990.372	1466.9	1496	1519.6	1536.2
m1 = 0.001	999.429	997.363	994.356	990.522	1467	1496.1	1519.7	1536.4
m1 = 0.002	999.643	997.576	994.56	990.713	1467.1	1496.2	1519.9	1536.5
m1 = 0.004	999.922	997.847	994.831	990.992	1467.5	1496.7	1520.2	1536.8

NCC(=O)O [2-aminoacetic acid] + O
Conditions	mass density, 288.15 K [kg/m3]	mass density, 298.15 K [kg/m3]	mass density, 308.15 K [kg/m3]	mass density, 318.15 K [kg/m3]	speed of sound, 288.15 K [m/s]	speed of sound, 298.15 K [m/s]	speed of sound, 308.15 K [m/s]	speed of sound, 318.15 K [m/s]
m1 = 0.01095	999.494	997.428	994.433	990.57	1467.3	1496.5	1520	1536.6
m1 = 0.02116	999.815	–	994.686	990.869	1467.9	1497	1520.6	1537.1
m1 = 0.04014	1000.41	998.287	995.236	991.411	1469	1498	1521.5	1538
m1 = 0.06033	1001.05	–	995.832	991.989	1470.1	1499	1522.5	1539
m1 = 0.08023	1001.7	999.548	–	–	1471.2	1500.1	1523.5	1540
m1 = 0.1006	1002.36	1000.17	997.123	993.251	1472.4	1501.2	1524.5	1540.9
m1 = 0.15	1003.96	1001.73	–	994.665	1475.2	1503.8	1527	1543.3
m1 = 0.2003	1005.57	1003.28	1000.2	996.211	1478	1506.4	1529.5	1545.7
